Measurements taken from patent publication US20100048529A1, “New 2-Azetidinone Derivatives Useful In The Treatment Of Hyperlipidaemic Conditions” (ASTRAZENECA AB, priority 2005, published 2010).

Test system: 14C-cholesterol absorption
Conditions: 0.2 μmol/kg by gavage, C57BL/6 female mice, procedure A
Procedure: In Vivo Testing of Cholesterol Absorption Inhibitors (A)
C57BL/6 female mice were maintained on regular chow diet and housed in individual cages to collect faeces. Mice were fasted for 3 hours and then gavaged with vehicle or compound. Half an hour later the mice were gavaged with radiolabelled cholesterol. Six hours after the ^14C-cholesterol gavage blood samples were taken via the tail and plasma prepared to determine how much cholesterol were absorbed. 24 hours after the gavage of ^14C-cholesterol the mice were bled and plasma were prepared for analysis. Faeces were collected for 24 hours to assess absorption efficiency.

CC(C)(c1ccccc1)[C@@H](NC(=O)CNC(=O)COc1ccc([C@@H]2[C@@H](SCC(O)c3ccc4c(c3)CCO4)C(=O)N2c2ccc(F)cc2)cc1)C(=O)NCC(=O)O (stereo partly drawn) [Example 1, N-({4-[(2R,3R)-3-{[2-(2,3-dihydro-1-benzofuran-5-yl)-2-hydroxyethyl]thio}-1-(4-fluorophenyl)-4-oxoazetidin-2-yl]phenoxy}acetyl)glycyl-b,b-dimethyl-D-phenylalanylglycine]
inhibition of 14C-cholesterol absorption: 36%
